“Also recorded” adds a separate entry of the source.
Legend:
[1] = Stability of inhibitors in extrudates in urea melt (HPLC, LCMS); format: physicochemical; conditions: urea melt conditions
Description: Representative procedure for checking the Inhibitor stability in urea melt: The extrudate (1.0 g) was added to a vial containing urea melt (3.0 g) and it was left at the same temperature for one minute. The Vial was then cooled to room temperature and diluted with 5.0 ml of water (milli-Q water). The water was decanted and the same process was repeated twice, to remove most of the urea. Finally, water (5.0 ml) was added to the extrudate and left for 4 h before submitting the samples for HPLC analysis.
Stability of inhibitors in urea melt: Extrudates containing inhibitors were tested for their stability in urea melt using HPLC and LCMS.
Extrudates containing NBTPT/DCD were dipped in urea melt in order to check the stability of the extrudates. Two types of studies were performed, 1) to check the deformation ability of extrudate in urea melt; and 2) to check the stability of inhibitors. Castor wax extrudates with and without inhibitors sustain the urea melt conditions under 5 seconds but inhibitors (NBTPT and DCD) were stable under these conditions. Bleached wheat flour containing extrudates sustained the urea melt temperature (133-135° C.). High melt waxes are taken in to consideration in order to mitigate the problem of possible deformation of wax extrudates when exposed to urea melt. The extrudates of high melt waxes were exposed to urea melt. […] The stability of NBTPT and DCD under urea melt temperature were analyzed and confirmed by HPLC and LCMS.

[2] = cited from earlier work
[3] = Stability of NBTPT during oven drying of water containing extrudates; format: physicochemical; conditions: extrudates dried in oven at 120° C. overnight
Source text: Optimized formulations from the DACA were successfully extruded in the pilot scale extruder in 300 g scale. 100% bleached wheat flour was also extruded with 10-20% water which was not done in DACA.

[4] = Thermal stability of neat NBTPT and NBTPT within a core at 133-135° C. by HPLC; format: physicochemical; conditions: exposed to 133-135° C. (urea melt temperature), up to 30 min
Description: The thermal stability of neat NBTPT and NBTPT contained within a core, as disclosed herein, can be determined by HPLC. For example, neat NBTPT or a core containing NBTPT can be exposed to 135° C. (133-135° C. is the typical temperature range of a urea melt) and can continuously be analyzed by HPLC every 5 min. Such data will determine how whether the NBTPT has better thermal stability when contained within a core, as compared to neat NBTPT.
The thermal stability of neat NBTPT and NBTPT within a core was determined by HPLC. The core for this example contained 58.8 wt % PoP, 39.2 wt % bleached wheat flour, and 2.0 wt % NBTPT. Both neat NBTPT and NBTPT within a core were exposed to 133-135° C., which is the typical urea melt temperature. […] The data indicates the core protects fertilizer additive materials, such as an inhibitor, from degradation during manufacturing conditions, including the expose of temperatures associated with a urea melt. The thermal stability of materials, such as an inhibitor is critical for its good performance (inhibition) in the soil. The intended function of a material, such as an inhibitor, can be lost if the material degrades when exposed to high temperatures during the manufacturing process.

[5] = bleached wheat flour extrudate containing the inhibitor
[6] = castor wax extrudate containing the inhibitor

| SMILES | Degradation of inhibitor in HPLC [1, 5] | Degradation of inhibitor in HPLC [1, 6] | Thermal stability in the soil ([2]; hot climatic region, soil) | Stability under acidic pH ([2]; acidic pH) | Stability of NBTPT on drying [3] | Thermal stability (decomposition by HPLC) ([4]; listed as Neat NBTPT) | Thermal stability (decomposition by HPLC) ([4]; listed as neat NBTPT) |
| --- | --- | --- | --- | --- | --- | --- | --- |
| N#CN=C(N)N [DCD, dicyandiamide] | no degradation | stable; also recorded: no degradation | thermal instability |  |  |  |  |
| CCCCNP(N)(N)=S [NBTPT, N-(n-butyl) thiophosphoric triamide] | no degradation | stable; also recorded: no degradation |  | unstable | stable | significant degradation | decomposes |
